Assay results published in PubChem BioAssay AID1963446 (Molecular Pharmacology Branch, DTP, NCI, 2024).
pIC50: −log10 of the molar value. Values joined by “and” are separate entries in the source; they are usually repeats but may differ in a detail not shown here. Identical values can stand only once.

System: 993429-296-R-J1-PDC complex spheroid growth, percent test/control
Assay: Anticancer human tumor 993429-296-R-J1-PDC patient-derived uterine sarcoma cell line growth inhibition [Asc]
Settings: for viability, T/C: stronger effect = lower value
Method in brief: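 Spheroid model: tumor line + HUVEC + hMSC. Single agents and combinations; top conc. at/near clinical Cmax (10 microM if undetermined), half-log dilutions. DMSO stocks at 800-fold test concentration.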
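Also: spheroids exposed to compounds for seven days.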

`C=C(F)C(=O)N1CCN(c2nc(OCC3CCCN3C)nc3c2CCN(c2cccc4cccc(Cl)c24)C3)CC1CC#N` (stereo not drawn) + CNC(C)C(=O)NC1CN(S(=O)(=O)c2cccc(S(=O)(=O)N3CCC4CCC(C(=O)NC(c5ccccc5)c5ccccc5)N4C(=O)C(NC(=O)C(C)NC)C3)c2)CCC2CCC(C(=O)NC(c3ccccc3)c3ccccc3)N2C1=O was tested, and the pIC50 (curve of first compound, second compound 0.01 µM) was 6.00, the pIC50 (curve of first compound, second compound 0.0316 µM) was 5.98 and the pIC50 (curve of first compound, second compound 0.1 µM) was 6.21. It also gave a pIC50 (curve of first compound, second compound 0.316 µM) greater than 7.50, a pIC50 (curve of first compound, second compound 1 µM) of 7.25 and a viability, T/C (second compound 0.01 µM, first compound 0.0316 µM) of 54.2%. The viability, T/C (second compound 0.01 µM, first compound 0.1 µM) was 59.8%, the viability, T/C (second compound 0.01 µM, first compound 0.316 µM) was 57.6% and the viability, T/C (second compound 0.01 µM, first compound 1 µM) was 50.4%. For the same compound, the viability, T/C (second compound 0.01 µM, first compound 3.16 µM) was 7.74%, the viability, T/C (second compound 0.01 µM, first compound 10 µM) was 0.13% and the viability, T/C (second compound 0.0316 µM, first compound 0.0316 µM) was 59.9%. The viability, T/C (second compound 0.0316 µM, first compound 0.1 µM) was 58.6%, the viability, T/C (second compound 0.0316 µM, first compound 0.316 µM) was 55.4% and the viability, T/C (second compound 0.0316 µM, first compound 1 µM) was 51.7%. It also gave a viability, T/C (second compound 0.0316 µM, first compound 3.16 µM) of 5.7%, a viability, T/C (second compound 0.0316 µM, first compound 10 µM) of 0.12% and a viability, T/C (second compound 0.1 µM, first compound 0.0316 µM) of 51.4%. It also gave a viability, T/C (second compound 0.1 µM, first compound 0.1 µM) of 54.7%, a viability, T/C (second compound 0.1 µM, first compound 0.316 µM) of 54.8% and a viability, T/C (second compound 0.1 µM, first compound 1 µM) of 47.4%. For the same compound, the viability, T/C (second compound 0.1 µM, first compound 3.16 µM) was 7.4%, the viability, T/C (second compound 0.1 µM, first compound 10 µM) was 0.12% and the viability, T/C (second compound 0.316 µM, first compound 0.0316 µM) was 45.9%. It also gave a viability, T/C (second compound 0.316 µM, first compound 0.1 µM) of 52.4%, a viability, T/C (second compound 0.316 µM, first compound 0.316 µM) of 40.3% and a viability, T/C (second compound 0.316 µM, first compound 1 µM) of 45.4%. The viability, T/C (second compound 0.316 µM, first compound 3.16 µM) was 7.07%, the viability, T/C (second compound 0.316 µM, first compound 10 µM) was 0.12% and the viability, T/C (second compound 1 µM, first compound 0.0316 µM) was 57.8%. The viability, T/C (second compound 1 µM, first compound 0.1 µM) was 37.8%, the viability, T/C (second compound 1 µM, first compound 0.316 µM) was 37.6% and the viability, T/C (second compound 1 µM, first compound 1 µM) was 34.2%. It also gave a viability, T/C (second compound 1 µM, first compound 3.16 µM) of 3.13% and a viability, T/C (second compound 1 µM, first compound 10 µM) of 0.2%.

With `NC1CCC(NC2CC2c2ccccc2)CC1` (stereo not drawn) the viability, T/C (compound 0.000316 µM) was 72.9% and 80.7% and 109%, the viability, T/C (compound 0.001 µM) was 70.1% and 86.3% and 87% and the viability, T/C (compound 0.00316 µM) was 85.3% and 78.1% and 85.6%. For the same compound, the viability, T/C (compound 0.01 µM) was 78.4% and 94.6% and 91.1%, the viability, T/C (compound 0.0316 µM) was 68% and 88.5% and 86.8% and the viability, T/C (compound 0.1 µM) was 74.9% and 76.6% and 79.7%. The pIC50 (curve of compound) was less than 7.00.

With `C#Cc1c(F)ccc2cc(O)cc(-c3ncc4c(N5CC6CCC(C5)N6)nc(OCC56CCCN5CC(F)C6)nc4c3F)c12` (stereo not drawn) the viability, T/C (compound 0.0316 µM) was 102% and 88% and 97.9%, the viability, T/C (compound 0.1 µM) was 108% and 101% and 89.1% and the viability, T/C (compound 0.316 µM) was 86% and 86.7% and 88.8%. For the same compound, the viability, T/C (compound 1 µM) was 93.3% and 82.2% and 100%, the viability, T/C (compound 3.16 µM) was 91.9% and 81.4% and 106% and the pIC50 (curve of compound) was < 5.00 and 5.30 and 5.25.
